Assay results reported in patent publication US20060128726A1, “Process for preparing novel crystalline forms of (2S)-1-[[(7R)-7-(3,4-dichlorophenyl)-4,7-dihydro-5-methylpyrazolo[1,5]pyrimidine-6-yl]carbonyl]-2-(4-fluorophenyl)pyrrolidine, novel stable forms produced therein and formulations” (priority 2004, published 2006).
Converted amounts (≈) assume the structure as drawn. One block for each compound: values may come before it.

How the values were obtained:
[1] = solid-state stability (light, heat, physical and chemical); type: physicochemical
hygroscopicity = type: physicochemical
oral bioavailability = conditions: in vivo
[2] = slurry conversion of polymorph mixtures (relative thermodynamic stability); type: physicochemical; conditions: mixtures of H2-1 and H2-2 in aqueous ethanol slurries; conversion observed at 5, 25, 50 and 80° C.
aqueous solubility = type: physicochemical; conditions: water; depending on crystalline form
[3] = biological target: ultrarapidly activating, sustained potassium current (IKur, also known as Kv1.5) (Homo sapiens, UniProt P22460); conditions: cited from earlier work
ultrarapidly activating, sustained potassium current (IKur, also known as Kv1.5), sequence (P22460 whole entry): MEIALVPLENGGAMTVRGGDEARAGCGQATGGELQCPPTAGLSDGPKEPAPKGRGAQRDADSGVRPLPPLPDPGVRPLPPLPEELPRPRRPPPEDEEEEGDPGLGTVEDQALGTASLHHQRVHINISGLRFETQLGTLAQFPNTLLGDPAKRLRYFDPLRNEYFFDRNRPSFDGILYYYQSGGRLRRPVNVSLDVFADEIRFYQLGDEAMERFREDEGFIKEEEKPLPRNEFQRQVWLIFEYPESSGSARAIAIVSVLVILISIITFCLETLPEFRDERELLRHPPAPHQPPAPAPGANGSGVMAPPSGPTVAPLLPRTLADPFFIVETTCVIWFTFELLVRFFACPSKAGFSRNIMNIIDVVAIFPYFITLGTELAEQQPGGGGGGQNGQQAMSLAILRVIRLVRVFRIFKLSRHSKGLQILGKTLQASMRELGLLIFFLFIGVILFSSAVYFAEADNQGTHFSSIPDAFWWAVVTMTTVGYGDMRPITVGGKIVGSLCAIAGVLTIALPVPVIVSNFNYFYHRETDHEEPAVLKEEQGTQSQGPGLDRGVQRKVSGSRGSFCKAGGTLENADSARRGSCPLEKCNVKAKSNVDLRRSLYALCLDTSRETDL

- solid-state stability (physical and chemical) [1]: satisfactory solid-state stability
- hygroscopicity (hygroscopicity): low hygroscopicity
- oral bioavailability (oral bioavailability): satisfactory oral bioavailability
SMILES: CC1=C(C(=O)N2CCC[C@H]2c2ccc(F)cc2)[C@@H](c2ccc(Cl)c(Cl)c2)n2nccc2N1 [N-3 anhydrate]

SMILES: CC1=C(C(=O)N2CCC[C@H]2c2ccc(F)cc2)[C@@H](c2ccc(Cl)c(Cl)c2)n2nccc2N1 [H2-2 dihydrate]
- relative thermodynamic stability of polymorphs [2]: thermodynamically more stable than the H2-1 dihydrate

- solubility (aqueous solubility): 2 to 4 µg/mL (≈ 4.24 to 8.49 µM)
- sensitivity to light and heat ([1]; amorphous form and crystalline forms): sensitive to light and heat
SMILES: CC1=C(C(=O)N2CCC[C@H]2c2ccc(F)cc2)[C@@H](c2ccc(Cl)c(Cl)c2)n2nccc2N1 [IKur compound, (2S)-1-[[(7R)-(3,4-dichlorophenyl)-4,7-dihydro-5-methylpyrazolo[1,5-]pyrimidine-6-yl]carbonyl]-2-(4-fluorophenyl)pyrrolidine]
- blocking of IKur (Kv1.5) [3]: selective blocker
